ChEMBL document CHEMBL3044830, “Synthesis, characterization, antibacterial, antifungal, and immunomodulating activities of gatifloxacin derivatives” (Med Chem Res, 2010)

What was measured:
Bacillus subtilis [1] = assay: Antibacterial activity against Bacillus subtilis assessed as concentration required to obtain a zone of inhibition of 5 mm after 18 to 24 hr by disk diffusion method; type: functional
Trichophyton rubrum [2] = assay: Antifungal activity against Trichophyton rubrum assessed as concentration required to obtain a zone of inhibition of 20 mm after 7 days by disk diffusion method; type: functional
[3] = Antibacterial activity against Hofmanni bacterium assessed as concentration required to obtain a zone of inhibition of 5 mm after 18 to 24 hr by disc diffusion method
Klebsiella pneumoniae [4] = assay: Antibacterial activity against Klebsiella pneumoniae assessed as concentration required to obtain a zone of inhibition of 5 mm after 18 to 24 hr by disk diffusion method; type: functional
Bacillus subtilis [5] = assay: Antibacterial activity against Bacillus subtilis assessed as concentration required to obtain a zone of inhibition of 20 mm after 18 to 24 hr by disk diffusion method; type: functional
Bacillus subtilis [6] = assay: Antibacterial activity against Bacillus subtilis assessed as concentration required to obtain a zone of inhibition of 10 mm after 18 to 24 hr by disk diffusion method; type: functional
[7] = Antibacterial activity against Hofmanni bacterium assessed as concentration required to obtain a zone of inhibition of 20 mm after 18 to 24 hr by disc diffusion method
Blood [8] = assay: Antioxidant activity in Homo sapiens (human) whole blood assessed as inhibition of ROS production at 12.5 ug/ml after 30 min by luminol-enhanced chemiluminescence assay; type: functional; conditions: 0.5 h
Shigella sp. [9] = assay: Antibacterial activity against Shigella typhi assessed as concentration required to obtain a zone of inhibition of 20 mm after 18 to 24 hr by disc diffusion method; type: functional
Klebsiella pneumoniae [10] = assay: Antibacterial activity against Klebsiella pneumoniae assessed as concentration required to obtain a zone of inhibition of 20 mm after 18 to 24 hr by disk diffusion method; type: functional
Proteus mirabilis [11] = assay: Antibacterial activity against Proteus mirabilis assessed as concentration required to obtain a zone of inhibition of 20 mm after 18 to 24 hr by disc diffusion method; type: functional
Pseudomonas aeruginosa [12] = assay: Antibacterial activity against Pseudomonas aeruginosa assessed as concentration required to obtain a zone of inhibition of 20 mm after 18 to 24 hr by disk diffusion method; type: functional
Blood [13] = assay: Antioxidant activity in Homo sapiens (human) whole blood assessed as inhibition of ROS production at 100 ug/ml after 30 min by luminol-enhanced chemiluminescence assay; type: functional; conditions: 0.5 h
Pseudomonas aeruginosa [14] = assay: Antibacterial activity against Pseudomonas aeruginosa assessed as concentration required to obtain a zone of inhibition of 10 mm after 18 to 24 hr by disk diffusion method; type: functional
Fusarium solani [15] = assay: Antifungal activity against Fusarium solani assessed as concentration required to obtain a zone of inhibition of 40 mm after 7 days by disk diffusion method; type: functional
Citrobacter [16] = assay: Antibacterial activity against Citrobacter assessed as concentration required to obtain a zone of inhibition of 5 mm after 18 to 24 hr by disk diffusion method; type: functional
Citrobacter [17] = assay: Antibacterial activity against Citrobacter assessed as concentration required to obtain a zone of inhibition of 10 mm after 18 to 24 hr by disk diffusion method; type: functional
Shigella sp. [18] = assay: Antibacterial activity against Shigella typhi assessed as concentration required to obtain a zone of inhibition of 5 mm after 18 to 24 hr by disc diffusion method; type: functional
T-cell [19] = assay: Anti-inflammatory activity in Homo sapiens (human) T lymphocytes assessed as inhibition of PHA-induced [3H] thymidine uptake at 12.5 ug/ml incubated for 72 hr prior to [3H]thymidine addition measured after 18 hr by liquid scintillation method; type: functional
Escherichia coli [20] = assay: Antibacterial activity against Escherichia coli assessed as concentration required to obtain a zone of inhibition of 20 mm after 18 to 24 hr by disk diffusion method; type: functional
Candida albicans [21] = assay: Antifungal activity against Candida albicans assessed as concentration required to obtain a zone of inhibition of 20 mm after 7 days by disk diffusion method; type: functional
Pseudomonas aeruginosa [22] = assay: Antibacterial activity against Pseudomonas aeruginosa assessed as concentration required to obtain a zone of inhibition of 5 mm after 18 to 24 hr by disk diffusion method; type: functional
Fusarium solani [23] = assay: Antifungal activity against Fusarium solani assessed as concentration required to obtain a zone of inhibition of 20 mm after 7 days by disk diffusion method; type: functional
Escherichia coli [24] = assay: Antibacterial activity against Escherichia coli assessed as concentration required to obtain a zone of inhibition of 5 mm after 18 to 24 hr by disk diffusion method; type: functional
Shigella flexneri [25] = assay: Antibacterial activity against Shigella flexneri assessed as concentration required to obtain a zone of inhibition of 5 mm after 18 to 24 hr by disk diffusion method; type: functional
Klebsiella pneumoniae [26] = assay: Antibacterial activity against Klebsiella pneumoniae assessed as concentration required to obtain a zone of inhibition of 10 mm after 18 to 24 hr by disk diffusion method; type: functional
Trichophyton rubrum [27] = assay: Antifungal activity against Trichophyton rubrum assessed as concentration required to obtain a zone of inhibition of 40 mm after 7 days by disk diffusion method; type: functional
T-cell [28] = assay: Anti-inflammatory activity in Homo sapiens (human) T lymphocytes assessed as inhibition of PHA-induced [3H] thymidine uptake at 50 ug/ml incubated for 72 hr prior to [3H]thymidine addition measured after 18 hr by liquid scintillation method; type: functional
Citrobacter [29] = assay: Antibacterial activity against Citrobacter assessed as concentration required to obtain a zone of inhibition of 20 mm after 18 to 24 hr by disk diffusion method; type: functional
[30] = Antibacterial activity against Hofmanni bacterium assessed as concentration required to obtain a zone of inhibition of 10 mm after 18 to 24 hr by disc diffusion method
Shigella flexneri [31] = assay: Antibacterial activity against Shigella flexneri assessed as concentration required to obtain a zone of inhibition of 20 mm after 18 to 24 hr by disk diffusion method; type: functional
Proteus mirabilis [32] = assay: Antibacterial activity against Proteus mirabilis assessed as concentration required to obtain a zone of inhibition of 10 mm after 18 to 24 hr by disc diffusion method; type: functional
Blood [33] = assay: Antioxidant activity in Homo sapiens (human) whole blood assessed as inhibition of ROS production at 50 ug/ml after 30 min by luminol-enhanced chemiluminescence assay; type: functional; conditions: 0.5 h
T-cell [34] = assay: Anti-inflammatory activity in Homo sapiens (human) T lymphocytes assessed as inhibition of PHA-induced [3H] thymidine uptake at 3.12 ug/ml incubated for 72 hr prior to [3H]thymidine addition measured after 18 hr by liquid scintillation method; type: functional
Candida albicans [35] = assay: Antifungal activity against Candida albicans assessed as concentration required to obtain a zone of inhibition of 40 mm after 7 days by disk diffusion method; type: functional
Shigella flexneri [36] = assay: Antibacterial activity against Shigella flexneri assessed as concentration required to obtain a zone of inhibition of 10 mm after 18 to 24 hr by disk diffusion method; type: functional
Escherichia coli [37] = assay: Antibacterial activity against Escherichia coli assessed as concentration required to obtain a zone of inhibition of 10 mm after 18 to 24 hr by disk diffusion method; type: functional
Proteus mirabilis [38] = assay: Antibacterial activity against Proteus mirabilis assessed as concentration required to obtain a zone of inhibition of 5 mm after 18 to 24 hr by disc diffusion method; type: functional
T-cell [39] = assay: Anti-inflammatory activity in Homo sapiens (human) T lymphocytes assessed as inhibition of PHA-induced [3H] thymidine uptake incubated for 72 hr prior to [3H]thymidine addition measured after 18 hr by liquid scintillation method; type: functional, cell-based
Blood [40] = assay: Antioxidant activity in Homo sapiens (human) whole blood assessed as inhibition of ROS production after 30 min by luminol-enhanced chemiluminescence assay; type: functional, tissue-based; conditions: 0.5 h
Saccharomyces cerevisiae = assay: Antifungal activity against Saccharomyces cerevisiae assessed as zone of inhibition at 5 to 40 ug/ml after 7 days by disk diffusion method relative to gatifloxacin; type: functional
Fusarium solani [41] = assay: Antifungal activity against Fusarium solani assessed as zone of inhibition at 5 to 40 ug/ml after 7 days by disk diffusion method relative to gatifloxacin; type: functional
Escherichia coli [42] = assay: Antibacterial activity against Escherichia coli assessed as zone of inhibition at 5 to 40 ug/ml after 18 to 24 hr by disk diffusion method relative to gatifloxacin; type: functional
Trichophyton rubrum [43] = assay: Antifungal activity against Trichophyton rubrum assessed as zone of inhibition at 5 to 40 ug/ml after 7 days by disk diffusion method relative to gatifloxacin; type: functional
Citrobacter [44] = assay: Antibacterial activity against Citrobacter assessed as zone of inhibition at 5 to 40 ug/ml after 18 to 24 hr by disk diffusion method relative to gatifloxacin; type: functional
Bacillus subtilis [45] = assay: Antibacterial activity against Bacillus subtilis assessed as zone of inhibition at 5 to 40 ug/ml after 18 to 24 hr by disk diffusion method relative to gatifloxacin; type: functional
Pseudomonas aeruginosa [46] = assay: Antibacterial activity against Pseudomonas aeruginosa assessed as zone of inhibition at 5 to 40 ug/ml after 18 to 24 hr by disk diffusion method relative to gatifloxacin; type: functional
[47] = Antibacterial activity against Hofmanni bacterium assessed as zone of inhibition after 18 to 24 hr by disc diffusion method relative to gatifloxacin
Klebsiella pneumoniae [48] = assay: Antibacterial activity against Klebsiella pneumoniae assessed as zone of inhibition at 5 to 40 ug/ml after 18 to 24 hr by disk diffusion method relative to gatifloxacin; type: functional
Candida albicans [49] = assay: Antifungal activity against Candida albicans assessed as zone of inhibition at 5 to 40 ug/ml after 7 days by disk diffusion method relative to gatifloxacin; type: functional
Shigella sp. [50] = assay: Antibacterial activity against Shigella typhi assessed as zone of inhibition after 18 to 24 hr by disc diffusion method relative to gatifloxacin; type: functional
Shigella flexneri [51] = assay: Antibacterial activity against Shigella flexneri assessed as zone of inhibition at 5 to 40 ug/ml after 18 to 24 hr by disk diffusion method relative to gatifloxacin; type: functional
Staphylococcus aureus = assay: Antibacterial activity against methicillin-resistant Staphylococcus aureus assessed as zone of inhibition at 5 to 40 ug/ml after 18 to 24 hr by disk diffusion method relative to gatifloxacin; type: functional
Proteus mirabilis [52] = assay: Antibacterial activity against Proteus mirabilis assessed as zone of inhibition at 5 to 40 ug/ml after 18 to 24 hr by disc diffusion method relative to gatifloxacin; type: functional

COc1c(N2CCNC(C)C2)c(F)cc2c(=O)c(C(=O)O)cn(C3CC3)c12 (stereo not given) [GATIFLOXACIN]
Activity (Bacillus subtilis [1]): 11 µg/mL
Activity (Trichophyton rubrum [2]): 12 µg/mL
Activity [3]: 8 µg/mL
Activity (Klebsiella pneumoniae [4]): 9 µg/mL
Activity (Bacillus subtilis [5]): 17 µg/mL
Activity (Bacillus subtilis [6]): 15 µg/mL
Activity [7]: 15 µg/mL
inhibition at 12.5 µg/mL (Blood [8]): 19.7%
Activity (Shigella sp. [9]): 21 µg/mL
Activity (Klebsiella pneumoniae [10]): 19 µg/mL
Activity (Proteus mirabilis [11]): 19 µg/mL
Activity (Pseudomonas aeruginosa [12]): 14 µg/mL
inhibition at 100 µg/mL (Blood [13]): 84.7%
Activity (Pseudomonas aeruginosa [14]): 12 µg/mL
Activity (Fusarium solani [15]): 18 µg/mL
Activity (Citrobacter [16]): 15 µg/mL
Activity (Citrobacter [17]): 23 µg/mL
Activity (Shigella sp. [18]): 8 µg/mL
inhibition at 12.5 µg/mL (T-cell [19]): -97.9%
Activity (Escherichia coli [20]): 17 µg/mL
Activity (Candida albicans [21]): 8 µg/mL
Activity (Pseudomonas aeruginosa [22]): 8 µg/mL
Activity (Fusarium solani [23]): 12 µg/mL
Activity (Escherichia coli [24]): 7.5 µg/mL
Activity (Shigella flexneri [25]): 9 µg/mL
Activity (Klebsiella pneumoniae [26]): 14 µg/mL
Activity (Trichophyton rubrum [27]): 14 µg/mL
inhibition at 50 µg/mL (T-cell [28]): -25.2%
Activity (Citrobacter [29]): 26 µg/mL
Activity [30]: 13 µg/mL
Activity (Shigella flexneri [31]): 23 µg/mL
Activity (Proteus mirabilis [32]): 15 µg/mL
inhibition at 50 µg/mL (Blood [33]): 66%
inhibition at 3.12 µg/mL (T-cell [34]): -71.1%
Activity (Candida albicans [35]): 9 µg/mL
Activity (Shigella flexneri [36]): 16 µg/mL
Activity (Escherichia coli [37]): 12 µg/mL
Activity (Proteus mirabilis [38]): 9 µg/mL
IC50 (T-cell [39]): > 50 µg/mL
IC50 (Blood [40]): 31 µg/mL

C[C@@H]1CN(c2c(F)c(N)c3c(=O)c(C(=O)O)cn(C4CC4)c3c2F)C[C@H](C)N1 [SPARFLOXACIN]
Activity (Bacillus subtilis [1]): 12 µg/mL
Activity (Trichophyton rubrum [2]): 20 µg/mL
Activity [3]: 11 µg/mL
inhibition zone (IZ) (Saccharomyces cerevisiae): 0%
Activity (Klebsiella pneumoniae [4]): 10 µg/mL
Activity (Bacillus subtilis [5]): 15 µg/mL
Activity (Bacillus subtilis [6]): 13 µg/mL
Activity [7]: 14 µg/mL
inhibition zone (IZ) (Fusarium solani [41]): 70%
inhibition zone (IZ) (Escherichia coli [42]): 98.01%
inhibition zone (IZ) (Trichophyton rubrum [43]): 169%
inhibition zone (IZ) (Citrobacter [44]): 42.73%
Activity (Klebsiella pneumoniae [10]): 16 µg/mL
inhibition zone (IZ) (Bacillus subtilis [45]): 94.6%
Activity (Proteus mirabilis [11]): 15 µg/mL
Activity (Pseudomonas aeruginosa [12]): 15 µg/mL
Activity (Pseudomonas aeruginosa [14]): 13 µg/mL
Activity (Fusarium solani [15]): 11 µg/mL
inhibition zone (IZ) (Pseudomonas aeruginosa [46]): 117.6%
Activity (Citrobacter [16]): 8 µg/mL
inhibition zone (IZ) [47]: 110%
inhibition zone (IZ) (Klebsiella pneumoniae [48]): 96.1%
Activity (Citrobacter [17]): 9 µg/mL
Activity (Shigella sp. [18]): 9 µg/mL
Activity (Escherichia coli [20]): 14 µg/mL
Activity (Candida albicans [21]): 13 µg/mL
Activity (Pseudomonas aeruginosa [22]): 11 µg/mL
Activity (Fusarium solani [23]): 10 µg/mL
Activity (Escherichia coli [24]): 9 µg/mL
Activity (Shigella flexneri [25]): 9 µg/mL
inhibition zone (IZ) (Candida albicans [49]): 176%
Activity (Klebsiella pneumoniae [26]): 13 µg/mL
inhibition zone (IZ) (Shigella sp. [50]): 87%
Activity (Trichophyton rubrum [27]): 24 µg/mL
Activity (Citrobacter [29]): 10 µg/mL
Activity [30]: 13 µg/mL
inhibition zone (IZ) (Shigella flexneri [51]): 75.1%
inhibition zone (IZ) (Staphylococcus aureus): 77.2%
Activity (Shigella flexneri [31]): 13 µg/mL
Activity (Proteus mirabilis [32]): 12 µg/mL
Activity (Candida albicans [35]): 17 µg/mL
Activity (Shigella flexneri [36]): 11 µg/mL
Activity (Escherichia coli [37]): 11 µg/mL
inhibition zone (IZ) (Proteus mirabilis [52]): 90%
Activity (Proteus mirabilis [38]): 10 µg/mL
